We go through 3 compounds from BindingDB's records for doi:10.1016/S0960-894X(97)00161-3 (1997).

Assay [1] can be described thus: Compound was tested for inhibition against Creatine kinase (CK).
Assay [2] in a line: Compound was tested for inhibition against Creatine kinase(CK).

In the case of `CN(CC(=O)O)C(=N)CP(=O)(O)O` [Phosphocreatine analogue], in assay [1], affinity was put at a Ki of 1.4 mM. In other words, the millimolar range.

Regarding `N=C(CP(=O)(O)O)NCCC(=O)O` [Phosphocreatine analogue], in assay [1], the inhibitory constant (Ki) turned out to be 37 mM.

With `N=C(CP(=O)(O)O)NCC(=O)O` [Phosphocreatine analogue], the inhibitory constant (Ki) in assay [2] is 5.7 mM.
